Results from patent publication US20260365670A1, “EGFR INHIBITORS AND USES THEREOF” (DIZAL (JIANGSU) PHARMACEUTICAL CO., LTD., priority 2022, published 2026).
Where two headings read alike, the source gives them in different places.

Assays:
EGFR (C797S L858R) = target: T1, EGFR (C797S L858R) (Homo sapiens, UniProt P00533, C797S/L858R); experiment: Inhibition of EGFR (C797S L858R) biochemical enzymatic activity (HTRF); details: EGFR L858-C797S, 1 mM ATP, 1 h, room temperature, read-out: IC50 (nM) @L858-C797S
T1 construct: purchased signalchem
In short: (§1)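 Enzyme preincubated with compound, then ATP (1 mM) and TK substrate-biotin (1 μM) added; 1 h RT; stopped with EDTA-containing detection mix; HTRF read (ex 320, em 615/665 nm); IC50 by 4-parameter logistic fit.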

EGFR L858R = target: T2, EGFR L858R (Homo sapiens, UniProt P00533, L858R); experiment: Inhibition of EGFR L858R biochemical enzymatic activity (HTRF); details: 1 mM ATP, 1 h, room temperature, read-out: IC50 (nM) @L858R
T2 construct: purchased Carna Bio
In short: as §1

EGFR[T790M/C797S/L858R] = target: T3, EGFR[T790M/C797S/L858R] (Homo sapiens, UniProt P00533, C797S/L858R/T790M); experiment: Inhibition of EGFR[T790M/C797S/L858R] biochemical enzymatic activity (HTRF); details: EGFR T790M-C797S-L858R, 1 mM ATP, 1 h, room temperature, read-out: IC50 (nM) @T790M- C797S - L858R
T3 construct: purchased Carna Bio
In short: as §1

PC-9 = experiment: Cell proliferation assay, PC-9 cells (CellTiter-Glo, 72 hours); format: cell-based; details: PC9 cells, CellTiter-Glo, read-out: PC9 GI50
In short: (§2)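 GI50 is the concentration giving 50% proliferation inhibition. Growth for this was normalised to a baseline viability reading taken when compound was added, and to DMSO wells. PC-9 (500 cells/well) and mutant-EGFR Ba/F3 (5000 cells/well) are treated after overnight seeding in RPMI1640-based medium.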

[1] = tested on: Ba/F3 cells expressing EGFR mutations; experiment: Cell proliferation assay, Ba/F3 cells expressing EGFR mutations (CellTiter-Glo, 72 hours); format: cell-based; details: CellTiter-Glo
In short: as §2

A-431 = experiment: Cell proliferation GI50, A-431 cells (Table 6); format: cell-based
EGFR (d746-750 C797S) = target: T4, EGFR (d746-750 C797S) (Homo sapiens, UniProt P00533, C797S/DEL746-750); experiment: Inhibition of EGFR (d746-750 C797S) biochemical enzymatic activity (HTRF); details: EGFR Del19-C797S, 1 mM ATP, 1 h, room temperature, read-out: IC50 (nM) @Del19-C797S
T4 construct: purchased signalchem
In short: as §1

EGFR Exon19Del = target: T5, EGFR Exon19Del (Homo sapiens, UniProt P00533, DEL746-750); experiment: Inhibition of EGFR Exon19Del biochemical enzymatic activity (HTRF); details: EGFR Del19, 1 mM ATP, 1 h, room temperature, read-out: IC50 @Del19
T5 construct: purchased Carna Bio
In short: as §1

EGFR L858R/T790M = target: T6, EGFR L858R/T790M (Homo sapiens, UniProt P00533, L858R/T790M); experiment: Inhibition of EGFR L858R/T790M biochemical enzymatic activity (HTRF); details: EGFR L858R-T790M, 1 mM ATP, 1 h, room temperature, read-out: IC50 (nM) @L858R-T790M
T6 construct: purchased Carna Bio
In short: as §1

[2] = target: T7, EGFR[T790M/C797S/d746-750] (Homo sapiens, UniProt P00533, C797S/DEL746-750/T790M); experiment: Inhibition of EGFR[T790M/C797S/d746-750] biochemical enzymatic activity (HTRF); details: EGFR T790M-C797S-Del19, 1 mM ATP, 1 h, room temperature, read-out: IC50 (nM) @T790M - C797S - Del19
T7 construct: purchased Carna Bio
In short: as §1

EGFR Exon19Del/T790M = target: T8, EGFR Exon19Del/T790M (Homo sapiens, UniProt P00533, DEL746-750/T790M); experiment: Inhibition of EGFR Exon19Del/T790M biochemical enzymatic activity (HTRF); details: EGFR Del19-T790M, 1 mM ATP, 1 h, room temperature, read-out: IC50 (nM) @Del19-T790M
T8 construct: purchased Carna Bio
In short: as §1

EGFR wild type = target: T9, EGFR wild type (Homo sapiens, UniProt P00533); experiment: Inhibition of EGFR wild type biochemical enzymatic activity (HTRF); details: EGFR WT, 1 mM ATP, 1 h, room temperature, read-out: IC50 (nM) @WT
T9 construct: purchased Carna Bio
In short: as §1

[3] = BaF3 cells, EGFR DEL19-C797S, read-out: DEL19-C797S/BaF3 GI50
[4] = BaF3 cells, EGFR DEL19-T790-C797S, read-out: DEL19-T790-C797S/BaF3 GI50
[5] = BaF3 cells, EGFR L858R, read-out: L858R/BaF3 GI50
[6] = BaF3 cells, EGFR L858R-C797S, read-out: L858R-C797S/BaF3 GI50
[7] = BaF3 cells, EGFR L858R-T790-C797S, read-out: L858R-T790-C797S/BaF3 GI50
[8] = BaF3 cells, EGFR L858R-T790M, read-out: L858R-T790M/BaF3 GI50
[9] = EGFR DEL19-T790M, read-out: DEL19-T790M GI50
[10] = Mus musculus, BaF3, 72 h, BaF3 cells, EGFR DEL19-C797S, read-out: DEL19-C797S/BaF3 GI50
[11] = Mus musculus, BaF3, 72 h, BaF3 cells, EGFR DEL19-T790-C797S, read-out: DEL19-T790-C797S/BaF3 GI50
[12] = Mus musculus, BaF3, 72 h, BaF3 cells, EGFR L858R, read-out: L858R/BaF3 GI50
[13] = Mus musculus, BaF3, 72 h, BaF3 cells, EGFR L858R-C797S, read-out: L858R-C797S/BaF3 GI50
[14] = Mus musculus, BaF3, 72 h, BaF3 cells, EGFR L858R-T790-C797S, read-out: L858R-T790-C797S/BaF3 GI50
[15] = Mus musculus, BaF3, 72 h, BaF3 cells, EGFR L858R-T790M, read-out: L858R-T790M/BaF3 GI50
[16] = Mus musculus, BaF3, 72 h, EGFR DEL19-T790M, read-out: DEL19-T790M GI50
[17] = Homo sapiens, A-431, A-431 cells

T2 sequence (P00533 25-1210 L858R): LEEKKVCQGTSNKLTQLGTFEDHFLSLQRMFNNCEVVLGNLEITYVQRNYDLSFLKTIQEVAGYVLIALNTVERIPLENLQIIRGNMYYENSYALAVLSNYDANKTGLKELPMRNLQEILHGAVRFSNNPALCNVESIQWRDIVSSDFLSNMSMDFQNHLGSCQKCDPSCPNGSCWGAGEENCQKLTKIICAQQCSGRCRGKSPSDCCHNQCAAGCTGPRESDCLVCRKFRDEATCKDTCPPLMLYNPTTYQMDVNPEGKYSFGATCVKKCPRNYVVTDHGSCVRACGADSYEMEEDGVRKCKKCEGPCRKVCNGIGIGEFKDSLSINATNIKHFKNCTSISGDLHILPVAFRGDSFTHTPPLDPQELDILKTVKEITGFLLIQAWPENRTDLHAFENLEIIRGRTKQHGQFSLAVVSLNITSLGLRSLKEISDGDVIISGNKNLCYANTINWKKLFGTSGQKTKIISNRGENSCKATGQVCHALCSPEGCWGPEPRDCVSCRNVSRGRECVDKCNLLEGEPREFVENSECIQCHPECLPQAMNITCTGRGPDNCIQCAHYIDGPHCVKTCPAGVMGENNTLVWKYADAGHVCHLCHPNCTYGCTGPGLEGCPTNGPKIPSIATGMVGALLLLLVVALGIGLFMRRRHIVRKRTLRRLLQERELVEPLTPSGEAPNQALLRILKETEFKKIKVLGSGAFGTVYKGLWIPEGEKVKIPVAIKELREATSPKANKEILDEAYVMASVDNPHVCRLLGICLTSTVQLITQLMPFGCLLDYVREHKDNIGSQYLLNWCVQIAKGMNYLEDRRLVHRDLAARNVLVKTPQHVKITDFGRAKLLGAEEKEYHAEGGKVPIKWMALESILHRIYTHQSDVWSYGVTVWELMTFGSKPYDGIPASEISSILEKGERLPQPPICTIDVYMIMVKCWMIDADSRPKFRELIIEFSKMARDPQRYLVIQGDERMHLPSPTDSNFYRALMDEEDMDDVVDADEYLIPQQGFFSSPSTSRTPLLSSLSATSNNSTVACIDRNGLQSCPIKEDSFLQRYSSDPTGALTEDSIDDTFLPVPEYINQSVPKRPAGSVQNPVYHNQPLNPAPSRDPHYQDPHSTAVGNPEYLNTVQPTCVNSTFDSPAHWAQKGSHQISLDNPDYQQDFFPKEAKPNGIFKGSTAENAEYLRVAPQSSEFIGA
T3 sequence (P00533 25-1210 T790M/C797S/L858R): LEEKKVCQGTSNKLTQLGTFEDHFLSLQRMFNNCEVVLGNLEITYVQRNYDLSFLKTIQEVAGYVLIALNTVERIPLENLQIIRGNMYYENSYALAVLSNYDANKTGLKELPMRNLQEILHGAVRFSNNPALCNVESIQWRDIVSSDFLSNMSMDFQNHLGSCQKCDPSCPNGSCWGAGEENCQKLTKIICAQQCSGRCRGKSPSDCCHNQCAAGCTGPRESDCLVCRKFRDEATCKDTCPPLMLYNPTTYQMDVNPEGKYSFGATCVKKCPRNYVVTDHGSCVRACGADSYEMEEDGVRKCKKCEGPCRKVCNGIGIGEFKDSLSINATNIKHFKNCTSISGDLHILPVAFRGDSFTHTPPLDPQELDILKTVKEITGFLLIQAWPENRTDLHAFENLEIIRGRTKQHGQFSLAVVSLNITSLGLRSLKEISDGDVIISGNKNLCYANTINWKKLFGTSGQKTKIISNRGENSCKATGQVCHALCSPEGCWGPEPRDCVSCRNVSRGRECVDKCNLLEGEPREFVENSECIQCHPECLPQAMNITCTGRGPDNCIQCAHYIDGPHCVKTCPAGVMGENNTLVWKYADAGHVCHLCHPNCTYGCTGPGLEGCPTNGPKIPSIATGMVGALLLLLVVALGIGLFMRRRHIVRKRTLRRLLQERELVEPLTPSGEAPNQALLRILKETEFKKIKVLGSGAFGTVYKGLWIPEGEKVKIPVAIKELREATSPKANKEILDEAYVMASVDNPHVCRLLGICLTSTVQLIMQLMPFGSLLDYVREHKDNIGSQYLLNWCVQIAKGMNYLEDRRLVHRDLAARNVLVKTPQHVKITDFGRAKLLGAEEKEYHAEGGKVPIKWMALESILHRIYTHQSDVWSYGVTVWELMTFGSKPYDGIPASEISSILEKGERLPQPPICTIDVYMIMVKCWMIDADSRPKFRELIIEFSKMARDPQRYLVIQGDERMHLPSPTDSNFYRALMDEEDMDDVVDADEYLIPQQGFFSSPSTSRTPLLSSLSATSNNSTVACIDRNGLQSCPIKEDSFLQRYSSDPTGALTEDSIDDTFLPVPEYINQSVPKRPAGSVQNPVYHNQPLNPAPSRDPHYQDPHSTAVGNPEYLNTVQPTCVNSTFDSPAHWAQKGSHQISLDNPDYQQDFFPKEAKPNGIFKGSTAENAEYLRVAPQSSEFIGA
T9 sequence (P00533 25-1210): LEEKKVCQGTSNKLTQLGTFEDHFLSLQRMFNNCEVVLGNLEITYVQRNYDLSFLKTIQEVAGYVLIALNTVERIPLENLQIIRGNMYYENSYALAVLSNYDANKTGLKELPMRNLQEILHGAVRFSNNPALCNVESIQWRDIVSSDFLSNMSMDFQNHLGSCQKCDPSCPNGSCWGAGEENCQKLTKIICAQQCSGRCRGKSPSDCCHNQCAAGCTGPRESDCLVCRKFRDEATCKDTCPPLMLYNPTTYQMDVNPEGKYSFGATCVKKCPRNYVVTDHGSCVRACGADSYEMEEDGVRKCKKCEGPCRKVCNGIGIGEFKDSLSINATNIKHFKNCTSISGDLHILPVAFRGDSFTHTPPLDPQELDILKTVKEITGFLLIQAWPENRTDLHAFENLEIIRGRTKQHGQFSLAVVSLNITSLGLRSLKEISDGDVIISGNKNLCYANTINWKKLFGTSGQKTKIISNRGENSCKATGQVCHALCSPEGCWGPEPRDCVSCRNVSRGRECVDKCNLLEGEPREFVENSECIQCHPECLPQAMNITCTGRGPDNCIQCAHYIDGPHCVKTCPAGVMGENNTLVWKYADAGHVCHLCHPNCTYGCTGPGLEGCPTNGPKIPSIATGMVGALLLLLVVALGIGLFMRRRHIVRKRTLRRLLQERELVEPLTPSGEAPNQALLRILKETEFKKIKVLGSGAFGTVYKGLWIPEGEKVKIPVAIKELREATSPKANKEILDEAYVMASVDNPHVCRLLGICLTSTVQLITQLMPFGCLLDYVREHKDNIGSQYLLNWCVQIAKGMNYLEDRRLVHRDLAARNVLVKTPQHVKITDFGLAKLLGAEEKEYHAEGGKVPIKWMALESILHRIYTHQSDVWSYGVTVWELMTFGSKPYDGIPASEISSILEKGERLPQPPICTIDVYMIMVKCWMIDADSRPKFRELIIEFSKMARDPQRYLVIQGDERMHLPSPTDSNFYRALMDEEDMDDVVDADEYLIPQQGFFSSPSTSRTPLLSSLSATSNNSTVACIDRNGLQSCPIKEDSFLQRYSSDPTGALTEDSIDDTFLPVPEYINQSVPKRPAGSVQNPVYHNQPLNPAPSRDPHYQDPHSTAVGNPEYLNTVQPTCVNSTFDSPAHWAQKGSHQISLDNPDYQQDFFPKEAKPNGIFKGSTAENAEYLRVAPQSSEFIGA
T6 sequence (P00533 25-1210 T790M/L858R): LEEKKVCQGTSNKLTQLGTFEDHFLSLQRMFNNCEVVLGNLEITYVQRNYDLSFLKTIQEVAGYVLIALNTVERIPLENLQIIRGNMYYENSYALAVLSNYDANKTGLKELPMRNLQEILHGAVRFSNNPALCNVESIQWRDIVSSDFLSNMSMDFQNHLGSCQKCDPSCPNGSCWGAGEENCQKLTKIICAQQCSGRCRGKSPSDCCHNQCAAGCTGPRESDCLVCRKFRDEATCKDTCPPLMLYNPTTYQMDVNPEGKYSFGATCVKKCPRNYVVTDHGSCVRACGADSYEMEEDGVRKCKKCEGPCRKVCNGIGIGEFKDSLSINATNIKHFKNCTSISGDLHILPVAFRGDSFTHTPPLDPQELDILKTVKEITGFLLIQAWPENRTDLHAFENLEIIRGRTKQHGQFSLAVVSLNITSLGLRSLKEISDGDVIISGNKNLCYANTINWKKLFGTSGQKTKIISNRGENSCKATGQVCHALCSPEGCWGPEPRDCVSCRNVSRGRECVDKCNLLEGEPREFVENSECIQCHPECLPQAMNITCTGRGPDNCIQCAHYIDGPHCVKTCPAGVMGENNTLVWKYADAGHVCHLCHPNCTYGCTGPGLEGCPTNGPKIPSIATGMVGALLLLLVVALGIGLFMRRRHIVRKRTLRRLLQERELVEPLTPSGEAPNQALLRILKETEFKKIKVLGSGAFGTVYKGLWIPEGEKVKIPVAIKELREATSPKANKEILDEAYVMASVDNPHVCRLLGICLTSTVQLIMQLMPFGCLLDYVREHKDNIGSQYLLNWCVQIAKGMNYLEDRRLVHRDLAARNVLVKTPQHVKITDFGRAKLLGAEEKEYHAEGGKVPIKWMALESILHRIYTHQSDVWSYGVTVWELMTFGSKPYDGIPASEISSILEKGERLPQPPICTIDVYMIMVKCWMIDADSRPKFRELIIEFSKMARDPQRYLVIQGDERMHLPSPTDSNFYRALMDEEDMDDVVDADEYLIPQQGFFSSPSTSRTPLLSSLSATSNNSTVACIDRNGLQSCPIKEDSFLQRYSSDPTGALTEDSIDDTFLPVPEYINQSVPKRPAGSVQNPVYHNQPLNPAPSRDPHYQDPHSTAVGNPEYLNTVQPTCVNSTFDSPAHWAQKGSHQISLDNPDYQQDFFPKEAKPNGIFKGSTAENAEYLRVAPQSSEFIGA

## Cn1ncc2c1OCCN1CC3CCC(C3)(C1)n1c(nc3ccc(N4CC(N5CCOCC5)C4)cc31)NC(=O)c1cc-2c(=O)n(C)c1 (single isomer, unassigned) [Example A69B]
EGFR (C797S L858R)
  IC50: 14 nM
EGFR L858R
  IC50: 22 nM
EGFR[T790M/C797S/L858R]
  IC50: 3 nM
PC-9
  GI50: 4.9 nM
[1]; [3]
  GI50: 0.62 nM
[1]; [4]
  GI50: 1.3 nM
[1]; [5]
  GI50: 2.9 nM
[1]; [6]
  GI50: 3.6 nM
[1]; [7]
  GI50: 2 nM
[1]; [8]
  GI50: 10 nM
[1]; [9]
  GI50: 2 nM
A-431; A-431 cells
  GI50: 776 nM
EGFR (d746-750 C797S)
  IC50: 1.2 nM
EGFR Exon19Del
  IC50: 2.9 nM
EGFR L858R/T790M
  IC50: 2.8 nM
[2]
  IC50: 2.2 nM
EGFR Exon19Del/T790M
  IC50: 2 nM
EGFR wild type
  IC50: 291 nM

## Cn1ncc2c1OCCN1CC3CCC(C3)(C1)n1c(nc3ccc(N4CCN(C5CC5)CC4)cc31)NC(=O)c1cc-2c(=O)n(C)c1 (single isomer, unassigned) [Example A83B]
EGFR (C797S L858R)
  IC50: 5 nM
EGFR L858R
  IC50: 5 nM
EGFR[T790M/C797S/L858R]
  IC50: 2.3 nM
PC-9
  GI50: 20 nM
[1]; [3]
  GI50: 0.7 nM
[1]; [4]
  GI50: 10 nM
[1]; [5]
  GI50: 13 nM
[1]; [6]
  GI50: 8.9 nM
[1]; [7]
  GI50: 15 nM
[1]; [8]
  GI50: 25 nM
[1]; [9]
  GI50: 10 nM
A-431; A-431 cells
  GI50: 1190 nM
EGFR (d746-750 C797S)
  IC50: 0.96 nM
EGFR Exon19Del
  IC50: 0.96 nM
EGFR L858R/T790M
  IC50: 2.8 nM
[2]
  IC50: 2.7 nM
EGFR Exon19Del/T790M
  IC50: 2.7 nM
EGFR wild type
  IC50: 83 nM

## C[C@@H]1CCCNc2c(cnn2C)-c2cc(cn(C)c2=O)C(=O)Nc2nc3ccc(N4CCN(C)CC4)cc3n2C1 [Example A57]
EGFR (C797S L858R)
  IC50: 2650 nM
EGFR L858R
  IC50: > 5000 nM
EGFR[T790M/C797S/L858R]
  IC50: > 5000 nM
PC-9; Homo sapiens, PC-9, 72 h
  GI50: 194 nM
[1]; [10]
  GI50: 64 nM
[1]; [11]
  GI50: 534 nM
[1]; [12]
  GI50: 790 nM
[1]; [13]
  GI50: 474 nM
[1]; [14]
  GI50: 716 nM
[1]; [15]
  GI50: 356 nM
[1]; [16]
  GI50: 612 nM
A-431; [17]
  GI50: 8300 nM
EGFR (d746-750 C797S)
  IC50: 175 nM
EGFR Exon19Del
  IC50: 189 nM
EGFR L858R/T790M
  IC50: 4530 nM
[2]
  IC50: 65 nM
EGFR Exon19Del/T790M
  IC50: 112 nM
EGFR wild type
  IC50: > 5000 nM

## C[C@@H]1CCCOc2c(cnn2C)-c2cc(cn(C)c2=O)C(=O)Nc2nc3ccc(N4CCC5(CN(C)C5)C4)cc3n2C1 [Example A43]
EGFR (C797S L858R)
  IC50: 8.9 nM
EGFR L858R
  IC50: 21 nM
EGFR[T790M/C797S/L858R]
  IC50: 7.1 nM
PC-9; Homo sapiens, PC-9, 72 h
  GI50: 5.7 nM
[1]; [10]
  GI50: 1 nM
[1]; [11]
  GI50: 3.6 nM
[1]; [12]
  GI50: 2.6 nM
[1]; [13]
  GI50: 3.4 nM
[1]; [14]
  GI50: 2.5 nM
[1]; [15]
  GI50: 9.5 nM
[1]; [16]
  GI50: 5.2 nM
A-431; [17]
  GI50: 508 nM
EGFR (d746-750 C797S)
  IC50: 2.2 nM
EGFR Exon19Del
  IC50: 4.5 nM
EGFR L858R/T790M
  IC50: 13 nM
[2]
  IC50: 4.4 nM
EGFR Exon19Del/T790M
  IC50: 3.7 nM
EGFR wild type
  IC50: 295 nM

## C[C@@H]1CCCOc2c(cnn2C)-c2cc(cn(C)c2=O)C(=O)Nc2nc3ccc(N4CC5(CN(C)CCO5)C4)cc3n2C1 [Example A47]
EGFR (C797S L858R)
  IC50: 20 nM
EGFR L858R
  IC50: 46 nM
EGFR[T790M/C797S/L858R]
  IC50: 4.9 nM
PC-9; Homo sapiens, PC-9, 72 h
  GI50: 7 nM
[1]; [10]
  GI50: 1.7 nM
[1]; [11]
  GI50: 9.7 nM
[1]; [12]
  GI50: 4 nM
[1]; [13]
  GI50: 3.2 nM
[1]; [14]
  GI50: 3.4 nM
[1]; [15]
  GI50: 17 nM
[1]; [16]
  GI50: 12 nM
A-431; [17]
  GI50: 200 nM
EGFR (d746-750 C797S)
  IC50: 2.5 nM
EGFR Exon19Del
  IC50: 4.5 nM
EGFR L858R/T790M
  IC50: 9.5 nM
[2]
  IC50: 4.2 nM
EGFR Exon19Del/T790M
  IC50: 4.2 nM
EGFR wild type
  IC50: 1130 nM

## C[C@@H]1CCCOc2c(cnn2C)-c2cc(cn(C)c2=O)C(=O)Nc2nc3ccc(N4CCNCC4)c(Cl)c3n2C1 [Example A23, (11R)-15-chloro-5,11,26-trimethyl-16-(piperazin-1-yl)-7-oxa-4,5,13,20,22,26-hexaazapentacyclo[22.3.1.0^{2,6}.0^{13,21}.0^{14,19}]octacosa-1(28),2(6),3,14,16,18,20,24-octaene-23,27-dione]
EGFR (C797S L858R)
  IC50: 61 nM
EGFR L858R
  IC50: 207 nM
EGFR[T790M/C797S/L858R]
  IC50: 2.7 nM
PC-9; Homo sapiens, PC-9, 72 h
  GI50: 208 nM
[1]; [10]
  GI50: 4 nM
[1]; [11]
  GI50: 11 nM
[1]; [12]
  GI50: 104 nM
[1]; [13]
  GI50: 32 nM
[1]; [14]
  GI50: 12 nM
[1]; [15]
  GI50: 151 nM
[1]; [16]
  GI50: 10 nM
A-431; [17]
  GI50: 2820 nM
EGFR (d746-750 C797S)
  IC50: 3 nM
EGFR Exon19Del
  IC50: 4.7 nM
EGFR L858R/T790M
  IC50: 12 nM
[2]
  IC50: 2.7 nM
EGFR Exon19Del/T790M
  IC50: 3 nM
EGFR wild type
  IC50: > 5000 nM
